In the assay the target is T1, Recombinant full length human OGA enzyme (Homo sapiens, UniProt O60502).
T1 construct: Recombinant full length human OGA enzyme was purchased from Origene; purchased Origene
T1 sequence (O60502 1-916): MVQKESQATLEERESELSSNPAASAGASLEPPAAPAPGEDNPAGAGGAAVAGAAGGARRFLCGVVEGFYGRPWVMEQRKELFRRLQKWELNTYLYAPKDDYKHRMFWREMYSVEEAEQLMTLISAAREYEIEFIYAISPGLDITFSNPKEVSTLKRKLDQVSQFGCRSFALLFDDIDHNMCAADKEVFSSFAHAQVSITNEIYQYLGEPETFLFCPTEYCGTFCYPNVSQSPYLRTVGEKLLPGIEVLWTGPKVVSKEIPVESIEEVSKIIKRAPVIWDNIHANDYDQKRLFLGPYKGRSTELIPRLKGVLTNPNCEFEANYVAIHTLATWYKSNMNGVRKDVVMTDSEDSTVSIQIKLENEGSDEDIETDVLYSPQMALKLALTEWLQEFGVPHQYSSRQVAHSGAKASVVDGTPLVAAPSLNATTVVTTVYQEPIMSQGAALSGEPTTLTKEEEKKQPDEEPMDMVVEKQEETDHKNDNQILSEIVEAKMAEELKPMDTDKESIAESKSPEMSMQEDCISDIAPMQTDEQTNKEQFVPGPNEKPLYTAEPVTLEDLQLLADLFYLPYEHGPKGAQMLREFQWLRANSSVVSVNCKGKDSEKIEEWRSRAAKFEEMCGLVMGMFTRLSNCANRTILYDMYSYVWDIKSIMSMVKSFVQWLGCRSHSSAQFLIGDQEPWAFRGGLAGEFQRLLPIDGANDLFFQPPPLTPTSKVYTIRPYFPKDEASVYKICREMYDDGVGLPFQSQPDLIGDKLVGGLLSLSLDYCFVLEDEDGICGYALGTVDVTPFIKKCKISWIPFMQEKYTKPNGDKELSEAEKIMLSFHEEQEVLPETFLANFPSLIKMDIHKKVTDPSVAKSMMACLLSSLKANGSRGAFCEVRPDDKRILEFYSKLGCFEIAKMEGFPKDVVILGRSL
The experiment in a line: OGA enzyme inhibition biochemical assay. As to conditions: 1 nM OGA, 100 μM 4-MUGlcNAc (Km), pH 6.4, 90 minutes at room temperature, 10-point dose-response from 20 μM. In short, it runs like this:
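1 nM OGA with 100 μM 4-MUGlcNAc (Km) in McIlvaine buffer pH 6.4, 0.01% BSA, 90 min at room temperature; quenched with 3M glycine pH 10, fluorescence Ex 355/Em 460 nm. 10-point, 4-fold dilutions from 20 μM; 4-parameter variable-slope fit.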

As for `CC(=O)Nc1ncc(CN2C[C@H](Oc3ccnc4nn(C)cc34)C[C@@H]2C)s1` [Example 85, N-(5-(((2S,4R)-2-methyl-4-((2-methyl-2H-pyrazolo[3,4-b]pyridin-4-yl)oxy)pyrrolidin-1-yl)methyl)thiazol-2-yl)acetamide], the IC50 was below 1 nM.
For `CC(=O)Nc1ncc(CN2C[C@H](Oc3cc4cn(C)nc4cn3)C[C@@H]2C)s1` [Example 87, N-(5-(((2S,4R)-2-methyl-4-((2-methyl-2H-pyrazolo[3,4-c]pyridin-5-yl)oxy)pyrrolidin-1-yl)methyl)thiazol-2-yl)acetamide], the IC50 was below 1 nM.
To `CC(=O)Nc1ncc(CN2C[C@H](Oc3cc4cnn(C)c4cn3)C[C@@H]2C)s1` [Example 88, N-(5-(((2S,4R)-2-methyl-4-((1-methyl-1H-pyrazolo[3,4-c]pyridin-5-yl)oxy)pyrrolidin-1-yl)methyl)thiazol-2-yl)acetamide] belongs below 1 nM.
The result for `CC(=O)Nc1nc(F)c(CN2C[C@H](Oc3cc4cn(C)nc4cn3)C[C@@H]2C)s1` [Example 89, N-(4-fluoro-5-(((2S,4R)-2-methyl-4-((2-methyl-2H-pyrazolo[3,4-c]pyridin-5-yl)oxy)pyrrolidin-1-yl)methyl)thiazol-2-yl)acetamide] reads below 1 nM; that for `CC(=O)Nc1nc(F)c(CN2C[C@H](Oc3cc4cnn(C)c4cn3)C[C@@H]2C)s1` [Example 90, N-(4-fluoro-5-(((2S,4R)-2-methyl-4-((1-methyl-1H-pyrazolo[3,4-c]pyridin-5-yl)oxy)pyrrolidin-1-yl)methyl)thiazol-2-yl)acetamide], below 1 nM.
In the case of `CC(=O)Nc1ncc(CN2C[C@H](Oc3nc4cccnc4n3C)C[C@@H]2C)s1` [Example 91, N-(5-(((2S,4R)-2-methyl-4-((3-methyl-3H-imidazo[4,5-b]pyridin-2-yl)oxy)pyrrolidin-1-yl)methyl)thiazol-2-yl)acetamide], the IC50 is 5 nM.
To `CC(=O)Nc1nc(F)c(CN2C[C@H](Oc3cn4cccnc4n3)C[C@@H]2C)s1` [Example 92, N-(4-fluoro-5-(((2S,4R)-4-(imidazo[1,2-a]pyrimidin-2-yloxy)-2-methylpyrrolidin-1-yl)methyl)thiazol-2-yl)acetamide] belongs below 1 nM; to `CC(=O)Nc1nc(F)c(CN2C[C@H](Oc3ncnc4ccoc34)C[C@@H]2C)s1` [Example 94, N-(4-fluoro-5-(((2S,4R)-4-(furo[3,2-d]pyrimidin-4-yloxy)-2-methylpyrrolidin-1-yl)methyl)thiazol-2-yl)acetamide], below 1 nM.
To `CC(=O)Nc1ncc(CN2C[C@H](Oc3nccn4ccnc34)C[C@@H]2C)s1` [Example 95, N-(5-(((2S,4R)-4-(imidazo[1,2-a]pyrazin-8-yloxy)-2-methylpyrrolidin-1-yl)methyl)thiazol-2-yl)acetamide] belongs 5.3 nM; to `CC(=O)Nc1nc(F)c(CN2C[C@H](Oc3nccn4ccnc34)C[C@@H]2C)s1` [Example 96, N-(4-fluoro-5-(((2S,4R)-4-(imidazo[1,2-a]pyrazin-8-yloxy)-2-methylpyrrolidin-1-yl)methyl)thiazol-2-yl)acetamide], below 1 nM; to `CC(=O)Nc1ncc(CN2C[C@H](Oc3nccc4nccn34)C[C@@H]2C)s1` [Example 97, N-(5-(((2S,4R)-4-(imidazo[1,2-c]pyrimidin-5-yloxy)-2-methylpyrrolidin-1-yl)methyl)thiazol-2-yl)acetamide], below 1 nM.
On to `CC(=O)Nc1nc(F)c(CN2C[C@H](Oc3nccc4nccn34)C[C@@H]2C)s1` [Example 98, N-(4-fluoro-5-(((2S,4R)-4-(imidazo[1,2-c]pyrimidin-5-yloxy)-2-methylpyrrolidin-1-yl)methyl)thiazol-2-yl)acetamide], for which the IC50 was below 1 nM.
With `CC(=O)Nc1ncc(CN2C[C@H](Oc3cncc4nccn34)C[C@@H]2C)s1` [Example 99, N-(5-(((2S,4R)-4-(imidazo[1,2-a]pyrazin-5-yloxy)-2-methylpyrrolidin-1-yl)methyl)thiazol-2-yl)acetamide], the IC50 is below 1 nM.
`CC(=O)Nc1nc(F)c(CN2C[C@H](Oc3cncc4nccn34)C[C@@H]2C)s1` [Example 100, N-(4-fluoro-5-(((2S,4R)-4-(imidazo[1,2-a]pyrazin-5-yloxy)-2-methylpyrrolidin-1-yl)methyl)thiazol-2-yl)acetamide]: the IC50 was below 1 nM.
Turning to `CC(=O)Nc1nc(F)c(CN2C[C@H](Oc3nccn4cnnc34)C[C@@H]2C)s1` [Example 101, N-(5-(((2S,4R)-4-([1,2,4]triazolo[4,3-a]pyrazin-8-yloxy)-2-methylpyrrolidin-1-yl)methyl)-4-fluorothiazol-2-yl)acetamide], the IC50 was below 1 nM.
To `CC(=O)Nc1nc(F)c(CN2C[C@H](Oc3cccc4ncnn34)C[C@@H]2C)s1` [Example 102, N-(5-(((2S,4R)-4-([1,2,4]triazolo[1,5-a]pyridin-5-yloxy)-2-methylpyrrolidin-1-yl)methyl)-4-fluorothiazol-2-yl)acetamide] belongs below 1 nM; to `CC(=O)Nc1nc(F)c(CN2C[C@H](Oc3nccn4cc(C)nc34)C[C@@H]2C)s1` [Example 103, N-(4-fluoro-5-(((2S,4R)-2-methyl-4-((2-methylimidazo[1,2-a]pyrazin-8-yl)oxy)pyrrolidin-1-yl)methyl)thiazol-2-yl)acetamide], below 1 nM.
With `CC(=O)Nc1nc(F)c(CN2C[C@H](Oc3ccnc4ccnn34)C[C@@H]2C)s1` [Example 104, N-(4-fluoro-5-(((2S,4R)-2-methyl-4-(pyrazolo[1,5-a]pyrimidin-7-yloxy)pyrrolidin-1-yl)methyl)thiazol-2-yl)acetamide], the IC50 was found to be 3.8 nM.
The result for `CC(=O)Nc1nc(F)c(CN2C[C@H](Oc3ccc4ncnn4c3C)C[C@@H]2C)s1` [Example 105, N-(4-fluoro-5-(((2S,4R)-2-methyl-4-((5-methyl-[1,2,4]triazolo[1,5-a]pyridin-6-yl)oxy)pyrrolidin-1-yl)methyl)thiazol-2-yl)acetamide] reads below 1 nM; that for `CC(=O)Nc1nc(F)c(CN2C[C@H](Oc3ncnn4cccc34)C[C@@H]2C)s1` [Example 106, N-(4-fluoro-5-(((2S,4R)-2-methyl-4-(pyrrolo[2,1-f][1,2,4]triazin-4-yloxy)pyrrolidin-1-yl)methyl)thiazol-2-yl)acetamide], below 1 nM.
The result for `CC(=O)Nc1nc(F)c(CN2C[C@H](Oc3ccn4ncnc4c3)C[C@@H]2C)s1` [Example 107, N-(5-(((2S,4R)-4-([1,2,4]triazolo[1,5-a]pyridin-7-yloxy)-2-methylpyrrolidin-1-yl)methyl)-4-fluorothiazol-2-yl)acetamide] reads below 1 nM; that for `CC(=O)Nc1nc(F)c(CN2C[C@H](Oc3ccc4nccn4n3)C[C@@H]2C)s1` [Example 108, N-(4-fluoro-5-(((2S,4R)-4-(imidazo[1,2-b]pyridazin-6-yloxy)-2-methylpyrrolidin-1-yl)methyl)thiazol-2-yl)acetamide], below 1 nM.
The result for `CC(=O)Nc1nc(F)c(CN2C[C@H](Oc3cnc4c(ccn4C)n3)C[C@@H]2C)s1` [Example 109, N-(4-fluoro-5-(((2S,4R)-2-methyl-4-((5-methyl-5H-pyrrolo[2,3-b]pyrazin-2-yl)oxy)pyrrolidin-1-yl)methyl)thiazol-2-yl)acetamide] reads below 1 nM; that for `CC(=O)Nc1nc(F)c(CN2C[C@H](Oc3ncc4ccn(C)c4n3)C[C@@H]2C)s1` [Example 110, N-(4-fluoro-5-(((2S,4R)-2-methyl-4-((7-methyl-7H-pyrrolo[2,3-d]pyrimidin-2-yl)oxy)pyrrolidin-1-yl)methyl)thiazol-2-yl)acetamide], below 1 nM.
Turning to `CC(=O)Nc1nc(F)c(CN2C[C@H](Oc3nn4ccnc4s3)C[C@@H]2C)s1` [Example 111, N-(4-fluoro-5-(((2S,4R)-4-(imidazo[2,1-b][1,3,4]thiadiazol-2-yloxy)-2-methylpyrrolidin-1-yl)methyl)thiazol-2-yl)acetamide], the half-maximal inhibitory concentration (IC50) is below 1 nM.
For the compound `CC(=O)Nc1nc(F)c(CN2C[C@H](Oc3ccn4nc(C)cc4n3)C[C@@H]2C)s1` [Example 112, N-(4-fluoro-5-(((2S,4R)-2-methyl-4-((2-methylpyrazolo[1,5-a]pyrimidin-5-yl)oxy)pyrrolidin-1-yl)methyl)thiazol-2-yl)acetamide], the IC50 is below 1 nM.
`CC(=O)Nc1nc(F)c(CN2C[C@H](Oc3ncc4ncn(C)c4n3)C[C@@H]2C)s1` [Example 113, N-(4-fluoro-5-(((2S,4R)-2-methyl-4-((9-methyl-9H-purin-2-yl)oxy)pyrrolidin-1-yl)methyl)thiazol-2-yl)acetamide]: the IC50 was below 1 nM.

(Values after patent US12522595B2, “Bicyclic ether O-glycoprotein-2-acetamido-2-deoxy-3-D-glucopyranosidase inhibitors” (BIOGEN MA INC., priority 2019, dated 2026).)
